According to patent US20090197893A1 (Bristol-Myers Squibb Company, priority 2005, published 2009):
Read-outs that look alike come from different tables or passages of the source.

Assays:
[1] = Plasma pharmacokinetics in patients; assay type: in vivo, human; conditions: T315I patients; FIG. 2b
[2] = system: patients with advanced CML or Ph+ ALL with imatinib resistance/intolerance; assay: Dasatinib dose escalation clinical trial: cytogenetic response; conditions: for Cytogenetic response: CCyR / Cytogenetic response: Major CyR / Cytogenetic response: Minimal CyR / Cytogenetic response: Overall CyR / Cytogenetic response: PCyR / Cytogenetic response: Minor CyR: patients n (%)
[3] = target: p-glycoprotein (Homo sapiens, UniProt P08183); conditions: cited from earlier work
[4] = system: patients with advanced CML or Ph+ ALL with imatinib resistance/intolerance; assay: Dasatinib dose escalation clinical trial: hematologic response; conditions: for Hematologic response: CHR / Hematologic response: Major HR / Hematologic response: NEL / Hematologic response: Minor HR: patients n (%); for patients who responded: p=0.049
[5] = AP (N = 11), regardless of relationship to treatment, patients n (%)
[6] = AP-CML (N = 11), patients n (%)
[7] = LBC/ALL (N = 10), patients n (%)
[8] = LBC/ALL (N = 10), regardless of relationship to treatment, patients n (%)
[9] = LBC/Ph+ ALL (N = 10), patients n (%)
[10] = MBC N = (23), regardless of relationship to treatment, patients n (%)

p-glycoprotein, sequence (P08183 whole entry): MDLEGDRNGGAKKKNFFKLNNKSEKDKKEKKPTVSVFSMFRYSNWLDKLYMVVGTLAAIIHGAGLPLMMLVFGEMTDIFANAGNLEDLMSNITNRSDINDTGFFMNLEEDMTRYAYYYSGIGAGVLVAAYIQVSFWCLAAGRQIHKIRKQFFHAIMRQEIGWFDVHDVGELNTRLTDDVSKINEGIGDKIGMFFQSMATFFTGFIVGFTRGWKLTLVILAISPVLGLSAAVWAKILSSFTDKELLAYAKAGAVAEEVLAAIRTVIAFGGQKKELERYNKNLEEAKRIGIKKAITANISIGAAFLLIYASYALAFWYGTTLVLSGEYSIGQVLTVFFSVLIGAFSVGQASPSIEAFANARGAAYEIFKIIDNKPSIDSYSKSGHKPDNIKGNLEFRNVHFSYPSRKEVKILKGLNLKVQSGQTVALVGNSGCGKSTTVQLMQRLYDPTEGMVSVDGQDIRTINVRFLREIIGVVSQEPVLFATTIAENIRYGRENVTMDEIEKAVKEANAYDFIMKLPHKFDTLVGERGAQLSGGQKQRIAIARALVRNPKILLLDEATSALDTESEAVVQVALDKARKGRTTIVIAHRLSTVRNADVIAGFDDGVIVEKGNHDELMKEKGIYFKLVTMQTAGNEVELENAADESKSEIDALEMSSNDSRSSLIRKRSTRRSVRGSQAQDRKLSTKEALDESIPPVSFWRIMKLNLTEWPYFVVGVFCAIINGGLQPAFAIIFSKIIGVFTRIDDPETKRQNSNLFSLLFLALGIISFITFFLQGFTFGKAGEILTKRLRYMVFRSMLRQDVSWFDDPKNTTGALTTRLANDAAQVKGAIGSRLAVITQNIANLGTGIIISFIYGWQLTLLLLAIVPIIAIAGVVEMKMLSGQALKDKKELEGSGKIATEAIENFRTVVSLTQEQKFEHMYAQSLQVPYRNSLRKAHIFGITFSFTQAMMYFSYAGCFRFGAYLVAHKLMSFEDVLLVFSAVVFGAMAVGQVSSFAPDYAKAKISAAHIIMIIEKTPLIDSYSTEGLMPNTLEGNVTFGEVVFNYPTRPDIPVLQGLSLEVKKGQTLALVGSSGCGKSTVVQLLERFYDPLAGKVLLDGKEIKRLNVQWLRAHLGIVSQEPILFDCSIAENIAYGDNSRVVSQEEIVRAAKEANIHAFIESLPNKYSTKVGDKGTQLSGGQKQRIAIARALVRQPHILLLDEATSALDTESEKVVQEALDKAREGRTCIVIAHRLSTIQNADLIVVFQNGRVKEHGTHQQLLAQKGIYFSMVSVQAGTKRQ

Cc1nc(Nc2ncc(C(=O)Nc3c(C)cccc3Cl)s2)cc(N2CCN(CCO)CC2)n1 [dasatinib, N-(2-chloro-6-methylphenyl)-2-[[6-[4-(2-hydroxyethyl)-1-piperazinyl]-2-methyl-4-pyrimidinyl]amino]-5-thiazolecarboxamide]
serum levels [1]: adequate
Cytogenetic response: CCyR ([2]; AP CML n = 11): 2 (18)
Cytogenetic response: Major CyR ([2]; AP CML n = 11): 3 (27)
Cytogenetic response: Minimal CyR ([2]; AP CML n = 11): 1 (9)
Cytogenetic response: Overall CyR ([2]; AP CML n = 11): 4 (36)
Cytogenetic response: PCyR ([2]; AP CML n = 11): 1 (9)
Major cytogenetic responses ([2]; AP patients, 3/11): 27%
Cytogenetic response: CCyR ([2]; LBC-CML/ALL n = 10): 3 (30)
Cytogenetic response: Major CyR ([2]; LBC-CML/ALL n = 10): 8 (80)
Cytogenetic response: Minor CyR ([2]; LBC-CML/ALL n = 10): 1 (10)
Cytogenetic response: Overall CyR ([2]; LBC-CML/ALL n = 10): 9 (90)
Cytogenetic response: PCyR ([2]; LBC-CML/ALL n = 10): 5 (50)
MCyR rate ([2]; LBC/Ph+ ALL patients, 8/10): 80%
overall cytogenetic response rate ([2]; LBC/Ph+ ALL patients, 9/10): 90%
Cytogenetic responses ([2]; MBC patients, 12/23): 52%
Cytogenetic response: CCyR ([2]; MBC-CML n = 23): 6 (26)
Cytogenetic response: Major CyR ([2]; MBC-CML n = 23): 8 (35)
Cytogenetic response: Minimal CyR ([2]; MBC-CML n = 23): 2 (9)
Cytogenetic response: Minor CyR ([2]; MBC-CML n = 23): 2 (9)
Cytogenetic response: Overall CyR ([2]; MBC-CML n = 23): 12 (52)
Cytogenetic response: PCyR ([2]; MBC-CML n = 23): 2 (9)
Cytogenetic response: CCyR ([2]; Total N = 44): 11 (25)
Cytogenetic response: Major CyR ([2]; Total N = 44): 19 (43)
Cytogenetic response: Minimal CyR ([2]; Total N = 44): 3 (7)
Cytogenetic response: Minor CyR ([2]; Total N = 44): 3 (7)
Cytogenetic response: Overall CyR ([2]; Total N = 44): 25 (57)
Cytogenetic response: PCyR ([2]; Total N = 44): 8 (18)
CCyR ([2]; total patient population, 11/44): 25%
major CyR (CCyR plus PCyR) ([2]; total patient population, 19/44): 43%
CyR ([2]; total patient population, 25/44): 57%
maximum tolerated dose (35-120 mg BID cohorts): not defined
Diarrhea, Grade 1-4 (AP (N = 11), patients n (%)): 5 (45)
Dyspnea/Pulmonary edema, Grade 1-4 (AP (N = 11), patients n (%)): 3 (27)
Flushing, Grade 1-4 (AP (N = 11), patients n (%)): 3 (27)
Generalized edema, Grade 1-4 (AP (N = 11), patients n (%)): 1 (9)
Headache, Grade 1-4 (AP (N = 11), patients n (%)): 3 (27)
Nausea, Grade 1-4 (AP (N = 11), patients n (%)): 1 (9)
On-Study Myelosuppression: ANC, Grade 3 (AP (N = 11), patients n (%)): 3 (27)
On-Study Myelosuppression: Platelets, Grade 3 (AP (N = 11), patients n (%)): 3 (27)
Periorbital edema, Grade 1-4 (AP (N = 11), patients n (%)): 1 (9)
Peripheral edema, Grade 1-4 (AP (N = 11), patients n (%)): 3 (27)
Rash, Grade 1-4 (AP (N = 11), patients n (%)): 5 (45)
Vomiting, Grade 1-4 (AP (N = 11), patients n (%)): 1 (9)
Elevated ALT, Grade 1-4 [5]: 8 (73)
Elevated ALT, Grade 3-4 [5]: 1 (9)
Elevated AST, Grade 1-4 [5]: 7 (64)
Elevated Total bilirubin, Grade 1-4 [5]: 2 (18)
Elevated creatinine, Grade 1-4 [5]: 2 (18)
Hypocalcemia, Grade 1-4 [5]: 8 (73)
Hypocalcemia, Grade 3-4 [5]: 2 (18)
Hypomagnesemia, Grade 1-4 [5]: 5 (45)
Grade 3 or 4 neutropenia on treatment (AP, 9/11 patients): 82%
grade 3/4 thrombocytopenia (AP, 9/11 patients): 82%
On-Study Myelosuppression: ANC, Grade 4 [6]: 6 (55)
On-Study Myelosuppression: Platelets, Grade 4 [6]: 6 (55)
Diarrhea, Grade 1-4 [7]: 2 (20)
Dyspnea/Pulmonary edema, Grade 1-4 [7]: 1 (10)
Generalized edema, Grade 1-4 [7]: 1 (10)
Nausea, Grade 1-4 [7]: 1 (10)
Periorbital edema, Grade 1-4 [7]: 1 (10)
Peripheral edema, Grade 1-4 [7]: 1 (10)
Pleural effusion, Grade 1-4 [7]: 2 (20)
Rash, Grade 1-4 [7]: 1 (10)
Vomiting, Grade 1-4 [7]: 1 (10)
Elevated ALT, Grade 1-4 [8]: 7 (70)
Elevated AST, Grade 1-4 [8]: 9 (90)
Elevated Total bilirubin, Grade 1-4 [8]: 5 (50)
Elevated creatinine, Grade 1-4 [8]: 6 (60)
Hypocalcemia, Grade 1-4 [8]: 7 (70)
Hypocalcemia, Grade 3-4 [8]: 3 (30)
Hypomagnesemia, Grade 1-4 [8]: 3 (30)
On-Study Myelosuppression: ANC, Grade 3 [9]: 2 (20)
On-Study Myelosuppression: ANC, Grade 4 [9]: 6 (60)
On-Study Myelosuppression: Platelets, Grade 3 [9]: 0
On-Study Myelosuppression: Platelets, Grade 4 [9]: 7 (70)
grade 3/4 thrombocytopenia (LBC/Ph+ ALL, 7/10 patients): 70%
Grade 3 or 4 neutropenia on treatment (LBC/Ph+ ALL, 8/10 patients): 80%
Diarrhea, Grade 1-4 (MBC (N = 23), patients n (%)): 5 (22)
Diarrhea, Grade 3-4 (MBC (N = 23), patients n (%)): 1 (4)
Dyspnea/Pulmonary edema, Grade 1-4 (MBC (N = 23), patients n (%)): 2 (9)
Dyspnea/Pulmonary edema, Grade 3-4 (MBC (N = 23), patients n (%)): 2 (9)
Flushing, Grade 1-4 (MBC (N = 23), patients n (%)): 1 (4)
Headache, Grade 1-4 (MBC (N = 23), patients n (%)): 1 (4)
Nausea, Grade 1-4 (MBC (N = 23), patients n (%)): 4 (17)
On-Study Myelosuppression: ANC, Grade 3 (MBC (N = 23), patients n (%)): 2 (9)
On-Study Myelosuppression: ANC, Grade 4 (MBC (N = 23), patients n (%)): 20 (87)
On-Study Myelosuppression: Platelets, Grade 3 (MBC (N = 23), patients n (%)): 2 (9)
On-Study Myelosuppression: Platelets, Grade 4 (MBC (N = 23), patients n (%)): 17 (74)
Pericardial effusion, Grade 1-4 (MBC (N = 23), patients n (%)): 3 (13)
Pericardial effusion, Grade 3-4 (MBC (N = 23), patients n (%)): 2 (9)
Periorbital edema, Grade 1-4 (MBC (N = 23), patients n (%)): 2 (9)
Peripheral edema, Grade 1-4 (MBC (N = 23), patients n (%)): 5 (22)
Pleural effusion, Grade 1-4 (MBC (N = 23), patients n (%)): 8 (35)
Pleural effusion, Grade 3-4 (MBC (N = 23), patients n (%)): 3 (13)
Rash, Grade 1-4 (MBC (N = 23), patients n (%)): 2 (9)
Rectal hemorrhage, Grade 1-4 (MBC (N = 23), patients n (%)): 2 (9)
Rectal hemorrhage, Grade 3-4 (MBC (N = 23), patients n (%)): 2 (9)
Tumor lysis syndrome, Grade 1-4 (MBC (N = 23), patients n (%)): 2 (9)
Tumor lysis syndrome, Grade 3-4 (MBC (N = 23), patients n (%)): 2 (9)
Vomiting, Grade 1-4 (MBC (N = 23), patients n (%)): 2 (9)
Elevated ALT, Grade 1-4 [10]: 13 (57)
Elevated AST, Grade 1-4 [10]: 13 (57)
Elevated Total bilirubin, Grade 1-4 [10]: 10 (43)
Elevated Total bilirubin, Grade 3-4 [10]: 4 (17)
Elevated creatinine, Grade 1-4 [10]: 12 (52)
Hypocalcemia, Grade 1-4 [10]: 21 (91)
Hypocalcemia, Grade 3-4 [10]: 6 (26)
Hypomagnesemia, Grade 3-4 [10]: 1 (4)
grade 3/4 thrombocytopenia (MBC, 19/23 patients): 83%
Grade 3 or 4 neutropenia on treatment (MBC, 22/23 patients): 96%
severe (grade 4) myelosuppression (advanced phase CML patients): about 70%
patients removed from the study due to a drug-related toxicity (all patients): no patient
Grade 3/4 non-hematologic adverse events (all patients, 9/44): 20%
non-malignant pleural effusions (often in the absence of other edema): 10 patients
substrate for p-glycoprotein [3]: not a substrate
Hematologic response: CHR ([4]; AP CML n = 11): 5 (45)
Hematologic response: Major HR ([4]; AP CML n = 11): 9 (81)
Hematologic response: NEL ([4]; AP CML n = 11): 4 (36)
patients who achieved a major HR remain on study ([4]; AP cohort, 9/11, median of 8 months (range 2-13 months)): 81%
major HR confirmed after 4 weeks ([4]; AP patients, 6): 55%
major HR ([4]; AP patients, 9/11): 81%
Hematologic response: CHR ([4]; LBC-CML/ALL n = 10): 7 (70)
Hematologic response: Major HR ([4]; LBC-CML/ALL n = 10): 8 (80)
Hematologic response: NEL ([4]; LBC-CML/ALL n = 10): 1 (10)
major HR confirmed after 4 weeks ([4]; LBC/Ph+ ALL, 5): 50%
major HR rate ([4]; LBC/Ph+ ALL, 8/10): 80%
major HR confirmed after 4 weeks ([4]; MBC patients, 7): 30%
major HR ([4]; MBC patients, 14/23): 61%
patients who remain on the study ([4]; MBC, 6 of 23, follow-up ranging 5-12 months): 26%
Hematologic response: CHR ([4]; MBC-CML n = 23): 8 (35)
Hematologic response: Major HR ([4]; MBC-CML n = 23): 14 (61)
Hematologic response: Minor HR ([4]; MBC-CML n = 23): 4 (17)
Hematologic response: NEL ([4]; MBC-CML n = 23): 6 (26)
patients who failed to meet the criteria for major or minor hematologic response ([4]; Nine of the 44 patients): 20%
Hematologic response: CHR ([4]; Total N = 44): 20 (45)
Hematologic response: Major HR ([4]; Total N = 44): 31 (70)
Hematologic response: Minor HR ([4]; Total N = 44): 4 (9)
Hematologic response: NEL ([4]; Total N = 44): 11 (25)
patients who responded ([4]; complex karyotypes, 17 of 25 patients): 68%
relapsed within 6 months ([4]; lymphoid blast crisis or Ph+ ALL): all but one patient
patients with durable responses for 10 months or longer ([4]; of the 8 Myeloid BC patients who achieved CHR): 3
patients who responded ([4]; simple Ph karyotypes, 17 of 18 patients): 94%
CHR ([4]; total patient population, 20/44): 45%
major HR ([4]; total patient population, 31/44): 70%
